Values joined by “and” are separate entries in the source; they are usually repeats but may differ in a detail not shown here. Equal values may be shown once.
What was measured:
MDCK cells = experiment: MTT cytotoxicity assay on MDCK cells; assay type: cell-based, canine; settings: Canis lupus familiaris, 100 μmol/L, 24 h, mean ± SD of three replicates, read-out: Growth Inhibition Rate (%)
Experimental: First, we used the MTT method to perform cytotoxicity of barbatic acid derivatives (1, 6a–6p′) on MDCK cells at the concentration of 100 μmol/L, and the results are shown in Table 1.
The MTT assay was used to evaluate the cytotoxicity of the target compounds on DMCK cells. Logarithmic-growth-phase DMCK cells were seeded in a 96-well plate (10^4 cells/well) and incubated in a cell culture incubator for 24 h. The culture medium was then removed and replaced with a drug-containing medium for the treatment groups (1, 6a–6p′, 100 μmol/L), normal saline for the control group, or hydrochlorothiazide (100 μmol/L) for the positive control group. Each well was treated with 100 µL of the respective solution and incubated for an additional 24 h. The culture medium was then removed and replaced with a DMEM solution containing 20 µL of MTT (5 mg/mL). After incubating for 4 h, the liquid in each well was removed and replaced with 150 µL of DMSO, which was shaken for 10 min to ensure thorough mixing. The absorbance at 490 nm was measured to determine the optical density (OD) of each well. Cell growth inhibition rate (%) = (ODBlank − ODExperimental)/ODBlank × 100%.

[1] = test system: Na^+ transport, MDCK cells; experiment: In vitro diuretic activity: Na^+ transport inhibition, Transwell chamber seeded with MDCK cells; assay type: cell-based, canine; settings: for inhibition at 100 µM: Canis lupus familiaris, MDCK, read-out: Transport Inhibition Rate (%) Na^+; for inhibition at 100 µM / Transport Inhibition Rate (%) Na^+: 100 μmol/L, MDCK cells in Transwell, mean ± SD of three replicates, negative = promotion
From the text: (§1) The traditional methods for screening diuretic drugs are mostly in vivo experiments with mice, which have a long experimental cycle and are not suitable for screening massive compounds. As we know, the generation and excretion of urine involve two processes: glomerular filtration and tubular reabsorption. Reabsorption refers to the process in which the renal tubular epithelial cells transport water and certain solutes from the tubular fluid (urine) partially or entirely back into the bloodstream. Then, 99% of the water in the original urine filtered by the glomerulus is reabsorbed, and the transport of Na^+ and Cl^− plays an important role in this process. Thiazide and furosemide diuretics exert their diuretic effects by inhibiting the transport of Na^+ and Cl^−, which affects the tubular reabsorption of the original urine. Based on this principle, we established a new type of cell screening model for diuretic active drugs. Madin–Darby canine kidney (MDCK) cells were inoculated into a Transwell chamber to simulate the renal tubules. This cell model could transport and absorb external NaCl, simulating the reabsorption phenomenon. […] The effectiveness of this model was confirmed by the validation of hydrochlorothiazide, which is a commercially available diuretic drug and could inhibit the transport of Na^+ and Cl^− in renal tubules.
(§2) Generally, the transport of Na^+ and Cl^− plays an important role in glomerular filtration and tubular reabsorption. […] For example, inhibition rates of transport of 6a and 6c were over 30%, and had better inhibitory ability than barbatic acid. […] When ethyl, propyl, and benzyl were substituted on R^1, the introduction of any group could not enhance the inhibitory activity of barbatic acid, such as 6h–u and 6j′–6p′.
(§3) Log-phase MDCK cells were seeded in the upper chambers of Transwell plates (4 × 10^4 cells/well), and 800 µL of complete culture medium was added to the lower chambers. After 24 h of incubation at 37 °C, the electrical resistance of the upper chamber cells was measured one by one (R = (Rcell − Rblank) × 0.04π). When the electrical resistance of the upper chamber cells reached ≥300 Ω cm^2, the upper chamber medium was removed and replaced with the drug solution. The blank group (given normal saline), the experimental group (1, 6a–6p′, 100 μmol/L), and the hydrochlorothiazide group (100 μmol/L) were set, and each well was treated with 100 µL of the corresponding solution. The cells were then further incubated for 24 h. After that, the upper and lower chamber fluids were removed, and 200 µL of NaCl solution (15 mg/mL) was added to the upper chamber, while 800 µL of DMEM was added to the lower chamber for continued incubation. At 0.5, 1, 2, and 3 h, 50 µL of the lower chamber fluid was taken and the OD values were measured using Na^+ and Cl^− detection kits. The transport inhibition rate (%) was calculated as follows: transport inhibition rate (%) = (ODblank − ODexperimental)/ODblank × 100%.

[2] = test system: Cl^− transport, MDCK cells; experiment: In vitro diuretic activity: Cl^− transport inhibition, Transwell chamber seeded with MDCK cells; assay type: cell-based, canine; settings: Canis lupus familiaris; 100 μmol/L, MDCK cells in Transwell; mean ± SD of three replicates; negative = promotion; read-out: Transport Inhibition Rate (%) Cl^−
From the text: as §1, §2, §3

[3] = test system: Ca^2+ transport, MDCK cells; experiment: In vitro litholytic activity: Ca^2+ transport inhibition, Transwell chamber with MDCK cells; assay type: cell-based, canine; settings: Canis lupus familiaris, 100 μmol/L, mean ± SD of three replicates, read-out: Transport Inhibition Rate (%) Ca^2+
Experimental: (§4) On the other hand, all compounds had little inhibitory effect on Ca^2+ transport. The structure–activity relationships (SARs) were also observed. […] On the other hand, the introduction of the benzyl group to the R^1 or R^2 of barbatic acid could not lead to more promising compounds, such as 6a, 6n, 6u, 6b′, and 6i′–p′.
(§5) Logarithmic-phase DMCK cells were inoculated in the upper chamber of a Transwell plate (4 × 10^4 cells/well). Then, 800 µL of complete culture medium was added to the lower chamber, and the cells were incubated for 24 h until they adhered to the wall. The resistance value of the upper chamber cells was measured one by one at 37 °C (R = (Rcell − Rblank) × 0.04π). When the resistance value of the upper chamber cells was ≥300 Ω cm^2, the upper chamber liquid was discarded for drug administration. A control group (given physiological saline) and an experimental group (1, 6a–6p′, 100 μmol/L) were set up, and 100 µL of each drug was administered per well, followed by continued incubation for 24 h. Then, the upper and lower chamber liquids were discarded, and 200 µL of CaC2O4 (30 mmol/L) solution was added to the upper chamber, and 800 µL of PBS solution was added to the lower chamber for continued incubation. At 0.5, 1, 2, and 3 h, 50 µL of the lower chamber liquid was taken and then tested using the Ca^2+ and C2O4^2− detection kits and the following detection methods. The transport inhibition rate (%) = (ODblank − ODexperimental)/ODblank × 100%.

[4] = test system: C2O4^2− transport, MDCK cells; experiment: In vitro litholytic activity: C2O4^2− transport inhibition, Transwell chamber with MDCK cells; assay type: cell-based, canine; settings: for inhibition at 100 µM: Canis lupus familiaris, 100 μmol/L, MDCK cells in Transwell, mean ± SD of three replicates, read-out: Transport Inhibition Rate (%) C2O4^2−
Experimental: as §4, §5

SMILES	inhibition at 100 µM (MDCK cells) [%]	inhibition at 100 µM [1] [%]	inhibition at 100 µM [2] [%]	inhibition at 100 µM [3] [%]	inhibition at 100 µM [4] [%]	melting point [°C]	Transport Inhibition Rate (%) Na^+ [1]	Na^+ transport inhibition rate at 1, 2, and 3 h ([1]; evaluated at 1, 2, and 3 h (Figure 3))	C2O4^2− transport inhibition activity at different time periods ([4]; 1, 2, and 3 h (Figure 4))
Cc1cc(OCc2ccccc2)c(C)c(O)c1C(=O)Oc1cc(C)c(C(=O)OCC#N)c(O)c1C [6o′, 4-((cyanomethoxy)carbonyl)-3-hydroxy-2,5-dimethylphenyl 4-(benzyloxy)-2-hydroxy-3,6-dimethylbenzoate]	< 0	-3.28 ± 0.75	-24 ± 1.5	-1.82 ± 0.23	2.03 ± 1.07	151 to 155			
Cc1cc(OCc2ccccc2)c(C)c(O)c1C(=O)Oc1cc(C)c(C(=O)OCc2ccccc2)c(O)c1C [6p′, benzyl 4-(4-(benzyloxy)-2-hydroxy-3,6-dimethylbenzoyloxy)-2-hydroxy-3,6-dimethylbenzoate]	< 0	16.3 ± 0.1	-5.43 ± 0.85	-3.34 ± 0.26	7.16 ± 1.56	153 to 157			
COc1cc(C)c(C(=O)Oc2cc(C)c(C(=O)OCc3ccccc3)c(O)c2C)c(O)c1C [Compound 6a, Benzyl 2-hydroxy-4-((2-hydroxy-4-methoxy-3,6-dimethylbenzoyl)oxy)-3,6-dimethylbenzoate]	< 0	> 30	8.76 ± 0.25	-7.98 ± 0.17	-16.6 ± 0.37	113 to 115	33.51 ± 5.95%		
COC(=O)c1c(C)cc(OC(=O)c2c(C)cc(OC)c(C)c2O)c(C)c1O [Compound 6b, 3-hydroxy-4-(methoxycarbonyl)-2,5-dimethylphenyl 2-hydroxy-4-methoxy-3,6-dimethylbenzoate]	< 0		5.71	-5.14 ± 0.31	-4.25 ± 1.08	177 to 180	less than 10% and −9.31 ± 7.15%		
CCOC(=O)c1c(C)cc(OC(=O)c2c(C)cc(OC)c(C)c2O)c(C)c1O [Compound 6c, 4-(ethoxycarbonyl)-3-hydroxy-2,5-dimethylphenyl 2-hydroxy-4-methoxy-3,6-dimethylbenzoate]	< 0	> 30	-7.56 ± 0.35	-2.3 ± 0.34	1.01 ± 2.03	175 to 178	47.18 ± 0.80%	above 20%	
CCCOC(=O)c1c(C)cc(OC(=O)c2c(C)cc(OC)c(C)c2O)c(C)c1O [Compound 6d, 3-hydroxy-2,5-dimethyl-4-(propoxycarbonyl)phenyl 2-hydroxy-4-methoxy-3,6-dimethylbenzoate]	3.04 ± 0.3	8.04 ± 0.4	-9.21 ± 0.45	-9.93 ± 0.19	-6.69 ± 8.67	146 to 149			
COc1cc(C)c(C(=O)Oc2cc(C)c(C(=O)OC(C)C)c(O)c2C)c(O)c1C [Compound 6e, 3-hydroxy-4-(isopropoxycarbonyl)-2,5-dimethylphenyl 2-hydroxy-4-methoxy-3,6-dimethylbenzoate]	< 0	-0.88 ± 4.35	-3.13 ± 0.65	-3.66 ± 0.27	-2.05 ± 3	135 to 138			
C=CCOC(=O)c1c(C)cc(OC(=O)c2c(C)cc(OC)c(C)c2O)c(C)c1O [Compound 6f, allyl 2-hydroxy-4-(2-hydroxy-4-methoxy-3,6-dimethylbenzoyloxy)-3,6-dimethylbenzoate]	< 0	-0.5 ± 0.1	-0.61 ± 0.6	-3.66 ± 0.25	6.89 ± 1.5	155 to 157			
COc1cc(C)c(C(=O)Oc2cc(C)c(C(=O)OCC#N)c(O)c2C)c(O)c1C [Compound 6g]	0.12 ± 0.1	12.1 ± 1.3	-27.7 ± 1	-8.61 ± 0.19	-12.6 ± 2.88	184 to 187			
CCOc1cc(C)c(C(=O)Oc2cc(C)c(C(=O)OC)c(O)c2C)c(O)c1C [Compound 6h, 3-hydroxy-4-(methoxycarbonyl)-2,5-dimethylphenyl 4-ethoxy-2-hydroxy-3,6-dimethylbenzoate]	< 0	-7.67 ± 1	2.19 ± 0.55	-3.85 ± 0.19	-4.23 ± 4.77	152 to 155			
CCOC(=O)c1c(C)cc(OC(=O)c2c(C)cc(OCC)c(C)c2O)c(C)c1O [Compound 6i, 4-(ethoxycarbonyl)-3-hydroxy-2,5-dimethylphenyl 4-ethoxy-2-hydroxy-3,6-dimethylbenzoate]	< 0	5.2 ± 3.6	-2.13 ± 1.9	1.71 ± 0.13	54 ± 10.4	187 to 190			
CCCOC(=O)c1c(C)cc(OC(=O)c2c(C)cc(OCC)c(C)c2O)c(C)c1O [Compound 6j, 3-hydroxy-2,5-dimethyl-4-(propoxycarbonyl)phenyl 4-ethoxy-2-hydroxy-3,6-dimethylbenzoate]	< 0	5.2 ± 3.6	5.75 ± 1.1	4.45 ± 0.29	42.3 ± 1.66	154 to 157			very strong and continual inhibitory activities
CCOc1cc(C)c(C(=O)Oc2cc(C)c(C(=O)OC(C)C)c(O)c2C)c(O)c1C [Compound 6k, 3-hydroxy-4-(isopropoxycarbonyl)-2,5-dimethylphenyl 4-ethoxy-2-hydroxy-3,6-dimethylbenzoate]	< 0	-62.5 ± 1.95	-7.1 ± 1	1.2 ± 0.13	-5.12 ± 1.75	125 to 128			
